From publication PMC8140080, “The lexicon of antimicrobial peptides: a complete set of arginine and tryptophan sequences” (Communications Biology, 2021)
Where a SMILES comes first, the peptide text is derived from it.

Experiments:
P. aeruginosa PAO1 = experiment: Antimicrobial assay (IC50 and MBC), broth microdilution; type: cell-based, Pseudomonas aeruginosa; details: Fig. 1a; range assayed 0.8-400 µM; b35 words are general, printed in the P. aeruginosa morphology study
Procedure: (§1) S. aureus ATCC 6538 and C. albicans ATCC 10231 were obtained from Oxoid (Basingstoke, UK), and P. aeruginosa PAO1 donated by the University of Nottingham. Bacteria were routinely grown using Mueller–Hinton broth or agar and yeast was grown using Sabaraud Dextrose broth or agar. Cultures were incubated aerobically on agar at 37 °C for 20 h or under the same conditions in broth with shaking at 200 rpm.
(§2) Planktonic cultures were obtained by inoculating single colonies from 18–20 h old agar cultures into 10 ml of sterile broth, followed by 20-h incubation. S. aureus and P. aeruginosa assays were performed using Mueller–Hinton broth and agar and C. albicans assays were performed using Sabaraud Dextrose broth and agar. […]
(§3) Peptide stock solutions of 800 µM were prepared by dissolving solid peptides (provided in pre-weighed aliquots by the supplier) in phosphate buffer solution (PBS) containing 5% (v/v) DMSO. […] Each polystyrene plate was then aerobically incubated at 37 °C for 18–20 h without shaking, before measuring OD600 using a spectrophotometer plate reader (Nanostar; BMG Labtech, Ayelsbury). […] The mean IC50 for each peptide was calculated from the results of four independent experiments, with a single technical replicate each. Specific activity was calculated by plotting IC50 (µM) multiplied by peptide length, against peptide length. […]

P. aeruginosa [1] = experiment: Scanning electron microscopy of peptide-treated bacteria; type: cell-based, Pseudomonas aeruginosa; details: 1 h, 37 °C, ~10^7 CFU/ml in PBS, three independent experiments
P. aeruginosa [2] = experiment: Atomic force microscopy of peptide-treated bacteria; type: cell-based, Pseudomonas aeruginosa; details: 100 µM peptide, 2 min exposure, 37 °C; n = 6 cells
Procedure: A suspension of P. aeruginosa at ~10^7 CFU/ml in PBS was prepared as for SEM; 500 μl of this suspension was incubated with 500 μl of […] peptide (200 μM in PBS; 5% v/v DMSO) at 37 °C with shaking at 200 rpm for 45 min. As a negative control, 500 μl bacterial suspension was incubated with PBS containing 5% v/v DMSO. Samples of 50 μl were withdrawn from the suspensions at 2, 15 and 45 min for imaging by AFM. Chips were prepared by adsorbing 50 μl of poly-L-lysine onto a cleaved mica chip for 3 min. Excess poly-L-lysine was washed off by adding 10 × 200 μl aliquots of MilliQ water and excess water was removed using filter paper. Test samples were deposited onto the chips and left to adhere for 1-2 min, before further washing using 10 × 200 μl aliquots of MilliQ water, blotting off excess with filter paper, before leaving chips to air-dry overnight. Chips were scanned using a Bruker multimode 8 (Bruker, Billerica, USA) in ScanAsyst air mode. All images were taken at a resolution of 512 points per dimension unless stated otherwise, and are representative of single technical experiments. Images obtained were processed and different length measurements were performed using Gwyddion version 2.48 (http://gwyddion.net/). Measurements were taken of the long axis length, short axis length and maximum vertical height of the bacterium above the chip surface. […]

S. aureus = details: read-out: minimum IC50; cited from earlier work
Excerpt: (§4) A second general conclusion is that overall activity increases consistently with length. […] We previously reported variable activity in a group of cationic and hydrophobic AMPs based on apoE-derived AMPs, and a range of similar peptides we tested.

P. aeruginosa [3] = details: read-out: minimum IC50; cited from earlier work
Excerpt: as §4

[4] = Transmission electron microscopy of peptide aggregates; type: physicochemical; details: single independent experiment
Procedure: Peptides were prepared at 800 µM in PBS with 5% v/v DMSO, and any excessively large aggregates or dust removed by centrifugation (2000 × g, 5 min). Further dilutions (80 µM) were prepared in PBS with 5% v/v DMSO, and the latter diluent was also used to prepare control (peptide-free) grids. Carbon film 200 mesh copper transmission electron microscope (TEM) grids (Agar Scientific Ltd. Stanstead, UK) were initially functionalized using a glow discharger (K100X; Quorum technologies Ltd. Laughton, UK) under a current of 25 mA for 30 sec. These were then placed onto 10 µl droplets of each test sample solution for 1 min, and then transferred onto 10 µl droplets of 1% w/v uranyl acetate for a further minute. Excess solution was removed using filter paper and sample grids were air dried for at least 1 h. Grids were imaged using a Tecnai™ T12 BioTwin TEM (FEI Company. Hillsboro, USA). Images were cropped and scale bars were added using ImageJ. Images are representative of single independent experiments.

S. aureus ATCC 6538 = type: cell-based, Staphylococcus aureus
Procedure: as §1, §2, §3

With “RWWRWWR [C-terminal amidation and N-terminal acetylation]” as the compound, how does the “inhibitory activity (in words)” value (P. aeruginosa PAO1) read?
Its value is “one of the most active”.

What about the “bacterial morphology by SEM” value (P. aeruginosa [1]; 80 µM peptide) of the same compound?
Its value is “formation of spheroid objects on the surface of the bacteria, indicative of membrane blebbing”.

And the “bacterial morphology by SEM” value (P. aeruginosa [1]; 400 µM peptide)?
The value was “dramatic reduction in the number of intact bacteria”.

And the “bacterial height by AFM” value (P. aeruginosa [2])?
Its value is “doubled”.

What about the “mean bacterial width by AFM” value (P. aeruginosa [2]) of the same compound?
The value was “decreased by a third”.

And the IC50 (S. aureus)?
Its IC50 is 14 µM.

With “RRWYRWWR [Y-containing octapeptide similar to RWWRWWR, from the authors' earlier work]” as the compound, how does the IC50 (P. aeruginosa [3]) read?
Its IC50 is 21 µM.

For “WRWWWWW [library heptapeptide forming substantial aggregates at 800 µM; C-terminal amidation and N-terminal acetylation]”, which “visible aggregates by TEM” value ([4]; 80 µM in PBS with 5% v/v DMSO) is on record?
Its value is “not”.

What about the “visible aggregates by TEM” value ([4]; 800 µM in PBS with 5% v/v DMSO) of the same compound?
Its value is “Substantial visible aggregates were present”.

Which “increase of IC50 relative to WWWRRRW” value (S. aureus ATCC 6538; one residue changed, organism not given) does the source give for “WWWRRRR [library heptapeptide of W and R; C-terminal amidation and N-terminal acetylation carried out for all peptides]” here?
The value was 65 fold.

For “RRRRRRR [C-terminal amidation and N-terminal acetylation carried out for all peptides]”, which “inhibitory activity (in words)” value (P. aeruginosa PAO1) is on record?
Its value is “inactive”.

What about the “bacterial morphology by SEM” value (P. aeruginosa [1]; 80 µM peptide) of the same compound?
Its value is “no discernible change in morphology”.

What about the “bacterial morphology by SEM” value (P. aeruginosa [1]; 400 µM peptide) of the same compound?
The value was “no discernible change in morphology”.

With “WRKWRKRWWWRKWRKRWW [ApoEdpL-W, 18mer apoE-derived antimicrobial peptide composed of W, R and K, from the authors' earlier work]” as the compound, how does the IC50 (P. aeruginosa [3]) read?
Its IC50 is 7 µM.

With `CC(=O)N[C@@H](Cc1c[nH]c2ccccc12)C(=O)N[C@@H](Cc1c[nH]c2ccccc12)C(=O)N[C@@H](Cc1c[nH]c2ccccc12)C(=O)N[C@@H](CCCNC(=N)N)C(=O)N[C@@H](CCCNC(=N)N)C(=O)N[C@@H](CCCNC(=N)N)C(=O)N[C@@H](Cc1c[nH]c2ccccc12)C(N)=O` [WWWRRRW] (Ac-WWWRRRW-NH2) as the compound, how does the IC50 (S. aureus ATCC 6538; ATCC 6538) read?
Its IC50 is 2900 ± 300 nM.
